Key:
murine Abcg2 = molecular target: T1, murine Abcg2 (Mus musculus, UniProt Q7TMS5); test: Transepithelial transport assay in MDCK-II cells transduced with murine Abcg2; assay type: in vitro ADME
T1 sequence (Q7TMS5 1-657): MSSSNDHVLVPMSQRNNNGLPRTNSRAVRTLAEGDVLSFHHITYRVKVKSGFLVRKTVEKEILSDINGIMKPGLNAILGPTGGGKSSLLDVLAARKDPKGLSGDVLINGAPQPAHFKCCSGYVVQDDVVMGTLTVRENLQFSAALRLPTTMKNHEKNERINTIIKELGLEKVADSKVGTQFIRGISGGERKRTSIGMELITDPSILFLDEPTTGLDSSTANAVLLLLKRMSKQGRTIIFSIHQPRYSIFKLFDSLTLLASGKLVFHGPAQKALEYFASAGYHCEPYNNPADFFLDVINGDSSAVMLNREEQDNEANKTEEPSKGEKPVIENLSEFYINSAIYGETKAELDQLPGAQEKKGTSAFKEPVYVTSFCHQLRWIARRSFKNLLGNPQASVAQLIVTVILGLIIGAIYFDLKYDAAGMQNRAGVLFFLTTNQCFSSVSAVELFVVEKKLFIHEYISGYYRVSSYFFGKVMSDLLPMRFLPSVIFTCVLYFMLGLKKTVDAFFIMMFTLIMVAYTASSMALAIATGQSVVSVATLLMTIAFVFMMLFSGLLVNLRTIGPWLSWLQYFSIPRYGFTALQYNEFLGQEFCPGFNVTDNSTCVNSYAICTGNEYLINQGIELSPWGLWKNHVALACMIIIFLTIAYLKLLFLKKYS
Experimental: (§1) For in vitro assays, the polarized cell line Madin-Darby canine kidney (MDCK-II) and their murine Abcg2 and human ABCG2 transduced subclones, which were previously generated and provided by A.H. Schinkel from the Netherlands Cancer Institute (Amsterdam, The Netherlands), were used.
(§2) Transcellular transport assays were performed as previously described, with minor modifications (Figure S1). Transduced MDCK-II cells were seeded as a monolayer on microporous membrane filters (3.0 μm pore size, 24 mm diameter; Transwell® 3414; Costar, Corning, NY, USA) at a density of 1.0 x 10^6 cells/well. Cells were grown for three days with daily medium replacement.
(§3) During the experiment, quality controls were performed in terms of monolayer tightness at the beginning and end of the assay using Millicell®ERS (Millipore, Burlington, MA, USA), and monolayer confluence was tested at the end of the experiment by means of Lucifer Yellow permeability. Transport proficiency was simultaneously checked by testing a typical ABCG2 substrate (danofloxacin 10 μM) (Table S1).
(§4) (to verify that the potential transport was specifically due to ABCG2). […] This volume was replaced with fresh Opti-MEM medium. Finally, at t = 4 h 600 µL aliquots were taken from the apical and basal compartments of each well. All samples were stored at −20 °C until being analyzed by high-performance liquid chromatography (HPLC), as described below.
(§5) The relative efflux transport ratio was calculated as the basal to apical directed transport percentage divided by the apical to basal directed transport percentage at 4 h.
(§6) Tissue samples were homogenized with a mixture of 50% water:50% methanol with 0.5% HCl; 1 mL of solution per 0.1 g of organ was used. To each 100 µL of plasma, milk or tissue homogenate, 10 µL of an albendazole-2-aminosulfone solution (100 µg/mL) was added as an internal standard and 400 µL of acetonitrile was also added in order to precipitate proteins. After 10 min of being horizontally vortexed, samples were centrifuged at 10,500× g for 10 min at 4 °C. Supernatants were evaporated to dryness at 40 °C under a stream of nitrogen. Samples were reconstituted in 100 µL of cold methanol and injected into the HPLC system. However, samples for in vitro assays were directly injected into the HPLC system.
(§7) The chromatographic system used for sample analysis consisted of a Waters 2695 separation module and a Waters 2998 UV photodiode array detector. Separation of samples was performed on an analytical reversed-phase column (5 µm particle size, 250 × 4.6 mm, EVO C18 100 Å, Phenomenex®, Torrance, CA, USA). The mobile phase used for in vitro samples was trifluoroacetic acid 0.04%:methanol (40:60), whereas for in vivo samples, it was ammonium acetate 25 mM (pH 5):acetonitrile (85:15). In both cases, the flow rate was set to 1.00 mL/min and UV absorbance was measured at 260.3 nm.

parental MDCK-II cells = test: Transepithelial transport assay in parental MDCK-II cells; assay type: in vitro ADME, canine; conditions: danofloxacin 10 µM, positive control, 4 h
Experimental: as §1, §2, §3, §4
(§8) Lumichrome appearance in the opposite compartment is presented as the fraction of total compound added at the beginning of the experiment and expressed as percentage. The relative efflux transport ratio was calculated as the basal to apical directed transport percentage divided by the apical to basal directed transport percentage at 4 h.

[1] = as above; assay type: in vitro ADME, canine; conditions: dog, danofloxacin 10 µM, positive control, read-out: Transport ratio (BA/AB)
Experimental: as §1, §2, §3, §4, §8

Abcg2 (BCRP) [2] = molecular target: T2, Abcg2 (BCRP) (Mus musculus, UniProt Q7TMS5); test: Transepithelial transport assay in MDCK-II cells transduced with murine Abcg2; assay type: in vitro ADME; conditions: mouse; danofloxacin 10 µM, positive control, 4 h, MDCK-II mABCG2; read-out: Transport ratio (BA/AB)
T2 sequence (Q7TMS5 1-657): T1 sequence (Q7TMS5 1-657)
Experimental: as §1, §2, §3, §4, §5, §6, §7

human ABCG2 = molecular target: T3, human ABCG2 (Homo sapiens, UniProt Q9UNQ0); test: Transepithelial transport assay in MDCK-II cells transduced with human ABCG2; assay type: in vitro ADME
T3 sequence (Q9UNQ0 1-655): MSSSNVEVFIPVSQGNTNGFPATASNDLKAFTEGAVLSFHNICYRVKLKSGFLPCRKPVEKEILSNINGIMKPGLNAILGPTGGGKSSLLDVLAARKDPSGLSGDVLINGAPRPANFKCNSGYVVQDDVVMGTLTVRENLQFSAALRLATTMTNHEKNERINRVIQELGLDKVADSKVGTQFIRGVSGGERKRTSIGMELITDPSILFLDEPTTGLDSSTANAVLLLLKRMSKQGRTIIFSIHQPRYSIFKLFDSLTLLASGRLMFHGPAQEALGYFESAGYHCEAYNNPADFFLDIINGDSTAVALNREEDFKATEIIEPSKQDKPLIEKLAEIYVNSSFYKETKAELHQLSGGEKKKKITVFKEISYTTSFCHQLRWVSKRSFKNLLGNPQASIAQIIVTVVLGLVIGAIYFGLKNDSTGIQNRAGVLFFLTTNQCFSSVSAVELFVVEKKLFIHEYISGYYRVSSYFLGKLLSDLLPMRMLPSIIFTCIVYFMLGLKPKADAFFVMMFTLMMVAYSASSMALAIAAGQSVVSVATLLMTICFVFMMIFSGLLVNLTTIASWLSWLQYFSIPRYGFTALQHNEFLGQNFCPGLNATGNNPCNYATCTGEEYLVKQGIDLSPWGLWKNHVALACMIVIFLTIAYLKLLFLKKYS
Experimental: as §1, §2, §3, §4, §5, §6
as §7, with “The mobile phase used for in vitro samples was trifluoroacetic acid 0.04%:methanol (40:60), whereas for in vivo samples, it was ammonium acetate 25 mM (pH 5):acetonitrile (85:15).” left out

ABCG2 (BCRP) [3] = molecular target: T4, ABCG2 (BCRP) (Homo sapiens, UniProt Q9UNQ0); test: as above; assay type: in vitro ADME; conditions: human; danofloxacin 10 µM, positive control, 4 h, MDCK-II hABCG2; read-out: Transport ratio (BA/AB)
T4 sequence (Q9UNQ0 1-655): T3 sequence (Q9UNQ0 1-655)
Experimental: as §1, §2, §3, §4, §5, §6
as §7, with “The mobile phase used for in vitro samples was trifluoroacetic acid 0.04%:methanol (40:60), whereas for in vivo samples, it was ammonium acetate 25 mM (pH 5):acetonitrile (85:15).” left out

[4] = Plasma levels in wild-type and Abcg2-/- male mice after intraperitoneal administration; conditions: for concentration at 45 min / concentration at 60 min: Plasma concentration
Source text: (§9) Animals were handled according to institutional and ARRIVE guidelines complying with European legislation (2010/63/EU). Experimental procedures were approved by the Animal Care and Use Committee of the University of León and the Junta de Castilla y León (ULE_010_2021). Abcg2^-/- and wild-type mice were used, all of >99% FVB/N genetic background, generated and kindly supplied by A. H. Schinkel (The Netherlands Cancer Institute).
(§10) All animals, which were aged from 9 to 14 weeks and weighed 30 g, were kept in a temperature-controlled environment with a cycle of 12 h of light and 12 h of darkness and received a standard diet and water ad libitum.
(§11) Blood samples were collected at different time points (5, 10, 20, 30, 45, 60, 90 and 120 min) by cardiac puncture under anesthesia with isoflurane. Organs were harvested at the 60 min time point. All animals were euthanized by cervical dislocation at the end of the experimental procedure. Heparinized blood samples were centrifuged immediately at 3000× g for 15 min. Plasma and organs were stored at −20 °C until HPLC analysis. Three to ten animals were used for each time point.
as §6, §7

HepG2 = conditions: liver cancer cell line HepG2; cited from earlier work
in vivo = conditions: female, FVB/N, mouse, ip, 10 mg/kg, 10 mg/kg intraperitoneal
Source text: as §9, §10
Pups of approximately 10 days old were separated from their mothers four hours before the onset of the experiment. […] Milk secretion was stimulated by oxytocin (200 μL of a 1 UI/mL solution), subcutaneously injected to lactating mice 10 min before sample collection. […] Animals were euthanized by cervical dislocation at the end of the experiment. Four to five animals were used for each group.
Heparinized blood samples were centrifuged immediately at 3000× g for 15 min to obtain plasma. Milk and plasma were also stored at −20 °C until HPLC analysis.
as §6, §7

MCF-7 = conditions: breast cancer cell line MCF-7; cited from earlier work
Colo-205 = conditions: colorectal cancer cell line Colo-205; cited from earlier work
[5] = Tissue distribution in wild-type and Abcg2-/- male mice; conditions: 10 mg/kg intraperitoneal; for concentration at 60 min: male, FVB/N, mouse, in vivo, ip, 10 mg/kg
Source text: as §9, §10, §11, §6, §7

[6] = tested on: non-small-cell lung cancer (NSCLC) cell lines; conditions: p53-dependent mechanisms; cited from earlier work
[7] = danofloxacin 10 µM, positive control, 4 h, MDCK-II mABCG2
[8] = danofloxacin 10 µM, positive control, 4 h, MDCK-II hABCG2
[9] = male, FVB/N, mouse, in vivo, ip, 10 mg/kg, Abcg2-/- male mice, 10 mg/kg intraperitoneal
[10] = male, FVB/N, mouse, in vivo, ip, 10 mg/kg, wild-type male mice, 10 mg/kg intraperitoneal

## COc1ccc2c3c([nH]c2c1)[C@H](CC(C)C)N1C(=O)[C@H](CCC(=O)OC(C)(C)C)NC(=O)[C@@H]1C3 [Ko143]
Murine Abcg2; Ko143 1 µM, lumichrome 10 µM, murine Abcg2 subclone
  Inhibition of ABCG2-mediated transport of lumichrome: completely inhibited

## CN1C[C@@H]2C[C@H]1CN2c1cc2c(cc1F)c(=O)c(C(=O)O)cn2C1CC1 [danofloxacin]
Parental MDCK-II cells
  AB transport (%): 22.84 ± 2.99%
  BA transport (%): 21.82 ± 1.79%
[1]
  efflux ratio at 4 h, 10 µM: 0.96 ± 0.08
Abcg2 (BCRP) [2]
  efflux ratio at 4 h, 10 µM: 9.24 ± 2.59
Murine Abcg2; [7]
  AB transport (%): 5.30 ± 1.97%
  BA transport (%): 45.77 ± 6.49%
Human ABCG2; [8]
  AB transport (%): 17.22 ± 2.98%
  BA transport (%): 33.94 ± 4.07%
ABCG2 (BCRP) [3]
  efflux ratio at 4 h, 10 µM: 2.04 ± 0.57

## Cc1cc2nc3[nH]c(=O)[nH]c(=O)c3nc2cc1C [lumichrome]
[4]; Abcg2-/- male mice, 10 mg/kg intraperitoneal
  Plasma AUC 20–120 min: 1290 ± 110 ng·h/mL
[4]; male, FVB/N, mouse, in vivo, ip, 10 mg/kg
  AUC: 720 ± 50 ng·h/mL
[4]; [9]
  concentration at 45 min: 1020 ± 260 ng/mL
  concentration at 60 min: 850 ± 500 ng/mL
[4]; [10]
  concentration at 45 min: 390 ± 240 ng/mL
  concentration at 60 min: 400 ± 130 ng/mL
HepG2
  Concentration showing significant cytotoxic activity: higher than 40 µM
In vivo; Milk concentration, Abcg2-/- lactating female mice
  concentration at 30 min: 430 ± 180 ng/mL
In vivo; Milk concentration, wild-type lactating female mice
  concentration at 30 min: 1750 ± 730 ng/mL
In vivo; Plasma concentration, Abcg2-/- lactating female mice
  concentration at 30 min: 280 ± 100 ng/mL
In vivo; Plasma concentration, wild-type lactating female mice
  concentration at 30 min: 310 ± 60 ng/mL
MCF-7
  Concentration showing significant cytotoxic activity: higher than 40 µM
Colo-205
  Concentration showing significant cytotoxic activity: higher than 40 µM
[5]; male mice, 60 min
  Tissue distribution (liver, kidney, small intestine, small intestine content, spleen, brain, testis): widely distributed in all organs analyzed
[5]; Concentration in liver, Abcg2-/- male mice
  concentration at 60 min: 340 ± 120 ng/mL
[5]; Concentration in liver, wild-type male mice
  concentration at 60 min: 150 ± 70 ng/mL
[5]; Concentration in small intestine content, Abcg2-/- male mice
  concentration at 60 min: 310 ± 110 ng/mL
[5]; Concentration in small intestine content, wild-type male mice
  concentration at 60 min: 850 ± 350 ng/mL
[5]; Concentration in testis, Abcg2-/- male mice
  concentration at 60 min: 180 ± 50 ng/mL
[5]; Concentration in testis, wild-type male mice
  concentration at 60 min: 80 ± 60 ng/mL
Murine Abcg2; lumichrome 10 µM, murine variant
  In vitro transport by the transporter (substrate): efficiently transported
[6]
  Concentration suppressing growth and inducing apoptosis: above 25 µM
Human ABCG2; lumichrome 10 µM, human variant
  In vitro transport by the transporter (substrate): efficiently transported
